How the values were obtained:
CK1α = target: T1, CK1α (Homo sapiens, UniProt P48729+Q96SW2); test: Western blot, degradation of substrate protein in hPBMCs; type: cell-based
T1 construct: effects of the compounds of the present disclosure on the expression of target proteins in cells; endogenous in cells; host or cells: human PBMCs (Milecell Biotechnologies)

IKZF3 = target: T2, IKZF3 (Homo sapiens, UniProt Q96SW2+Q9UKT9); test: as above; type: cell-based
T2 construct: effects of the compounds of the present disclosure on the expression of target proteins in cells; endogenous in cells; host or cells: human PBMCs (Milecell Biotechnologies)
T2 sequence (Q9UKT9 whole entry): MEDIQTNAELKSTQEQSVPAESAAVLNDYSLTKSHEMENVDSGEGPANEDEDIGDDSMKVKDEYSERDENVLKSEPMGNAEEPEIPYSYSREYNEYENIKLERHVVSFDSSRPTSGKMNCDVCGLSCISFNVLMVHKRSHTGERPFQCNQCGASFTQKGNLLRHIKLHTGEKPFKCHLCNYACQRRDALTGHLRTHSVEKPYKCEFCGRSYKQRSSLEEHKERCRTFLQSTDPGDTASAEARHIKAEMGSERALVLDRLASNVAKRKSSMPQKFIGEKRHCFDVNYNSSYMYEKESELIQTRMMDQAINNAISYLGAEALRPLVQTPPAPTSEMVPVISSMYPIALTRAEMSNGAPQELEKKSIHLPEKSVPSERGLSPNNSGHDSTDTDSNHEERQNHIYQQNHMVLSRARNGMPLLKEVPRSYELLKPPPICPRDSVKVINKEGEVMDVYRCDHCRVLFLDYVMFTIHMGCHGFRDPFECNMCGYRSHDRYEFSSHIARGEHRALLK
T2 sequence (Q96SW2 whole entry): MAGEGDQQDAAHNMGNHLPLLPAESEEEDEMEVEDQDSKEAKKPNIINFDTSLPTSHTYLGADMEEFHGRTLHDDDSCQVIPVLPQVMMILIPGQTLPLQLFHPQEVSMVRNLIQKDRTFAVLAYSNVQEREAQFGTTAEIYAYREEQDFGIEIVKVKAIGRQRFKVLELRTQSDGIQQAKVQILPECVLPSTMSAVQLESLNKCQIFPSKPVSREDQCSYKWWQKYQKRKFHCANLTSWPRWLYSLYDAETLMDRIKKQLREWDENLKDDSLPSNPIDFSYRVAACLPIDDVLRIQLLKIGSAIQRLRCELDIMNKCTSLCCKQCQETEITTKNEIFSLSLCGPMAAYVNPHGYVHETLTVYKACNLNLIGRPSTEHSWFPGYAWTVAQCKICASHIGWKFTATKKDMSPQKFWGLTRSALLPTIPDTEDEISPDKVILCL
T2 sequence (Q16531 whole entry partner): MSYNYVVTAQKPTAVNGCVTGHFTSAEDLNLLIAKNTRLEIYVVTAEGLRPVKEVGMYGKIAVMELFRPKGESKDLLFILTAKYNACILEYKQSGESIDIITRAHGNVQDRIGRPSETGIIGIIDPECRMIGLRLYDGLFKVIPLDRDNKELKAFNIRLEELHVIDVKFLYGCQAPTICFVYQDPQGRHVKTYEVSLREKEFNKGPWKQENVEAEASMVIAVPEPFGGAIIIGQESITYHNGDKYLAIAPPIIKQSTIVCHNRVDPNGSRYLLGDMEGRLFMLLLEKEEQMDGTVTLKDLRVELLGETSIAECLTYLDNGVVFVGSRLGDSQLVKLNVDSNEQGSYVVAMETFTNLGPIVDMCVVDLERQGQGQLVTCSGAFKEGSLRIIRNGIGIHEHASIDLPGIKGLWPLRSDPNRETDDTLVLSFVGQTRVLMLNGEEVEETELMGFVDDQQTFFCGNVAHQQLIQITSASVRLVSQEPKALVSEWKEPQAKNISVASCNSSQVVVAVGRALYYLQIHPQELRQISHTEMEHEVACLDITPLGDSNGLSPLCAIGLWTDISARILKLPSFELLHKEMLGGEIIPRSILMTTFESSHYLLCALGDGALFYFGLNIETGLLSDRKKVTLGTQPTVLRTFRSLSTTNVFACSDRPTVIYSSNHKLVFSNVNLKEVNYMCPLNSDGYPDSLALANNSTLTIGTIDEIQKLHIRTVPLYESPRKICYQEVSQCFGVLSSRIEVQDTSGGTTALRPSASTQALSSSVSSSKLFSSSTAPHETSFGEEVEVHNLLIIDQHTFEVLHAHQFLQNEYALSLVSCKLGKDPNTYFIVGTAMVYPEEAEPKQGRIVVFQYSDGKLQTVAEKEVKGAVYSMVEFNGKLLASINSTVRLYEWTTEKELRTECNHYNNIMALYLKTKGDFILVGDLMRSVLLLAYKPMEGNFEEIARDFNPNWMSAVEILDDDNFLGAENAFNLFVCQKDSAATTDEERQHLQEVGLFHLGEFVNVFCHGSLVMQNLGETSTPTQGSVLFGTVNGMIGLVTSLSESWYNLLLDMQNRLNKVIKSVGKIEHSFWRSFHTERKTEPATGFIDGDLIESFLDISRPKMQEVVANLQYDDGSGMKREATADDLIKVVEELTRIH

IKZF2 = target: T3, IKZF2 (Homo sapiens, UniProt Q96SW2+Q9UKS7); test: as above; type: cell-based
T3 construct: effects of the compounds of the present disclosure on the expression of target proteins in cells; endogenous in cells; host or cells: human PBMCs (Milecell Biotechnologies)
T3 sequence (Q9UKS7 whole entry): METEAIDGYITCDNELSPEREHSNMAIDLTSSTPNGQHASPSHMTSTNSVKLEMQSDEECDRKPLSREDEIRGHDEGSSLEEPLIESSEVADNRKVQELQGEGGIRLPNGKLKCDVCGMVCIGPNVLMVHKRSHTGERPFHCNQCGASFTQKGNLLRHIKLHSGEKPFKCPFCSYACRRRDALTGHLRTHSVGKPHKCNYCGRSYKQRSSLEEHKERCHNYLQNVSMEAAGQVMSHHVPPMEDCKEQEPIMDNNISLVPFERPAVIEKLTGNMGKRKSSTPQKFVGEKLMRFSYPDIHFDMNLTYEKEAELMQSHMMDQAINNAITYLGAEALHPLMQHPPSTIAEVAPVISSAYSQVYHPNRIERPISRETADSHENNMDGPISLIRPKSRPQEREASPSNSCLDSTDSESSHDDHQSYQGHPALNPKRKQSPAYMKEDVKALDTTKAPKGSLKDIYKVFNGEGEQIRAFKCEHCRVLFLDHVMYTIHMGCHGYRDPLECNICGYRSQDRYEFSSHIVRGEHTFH
T3 sequence (Q96SW2 whole entry): as the sequence (Q96SW2 whole entry) above
T3 sequence (Q16531 whole entry partner): as the sequence (Q16531 whole entry partner) above

WEE1 = target: T4, WEE1 (Homo sapiens, UniProt P30291+Q96SW2); test: as above; type: cell-based
T4 construct: effects of the compounds of the present disclosure on the expression of target proteins in cells; endogenous in cells; host or cells: human PBMCs (Milecell Biotechnologies)
T4 sequence (P30291 whole entry): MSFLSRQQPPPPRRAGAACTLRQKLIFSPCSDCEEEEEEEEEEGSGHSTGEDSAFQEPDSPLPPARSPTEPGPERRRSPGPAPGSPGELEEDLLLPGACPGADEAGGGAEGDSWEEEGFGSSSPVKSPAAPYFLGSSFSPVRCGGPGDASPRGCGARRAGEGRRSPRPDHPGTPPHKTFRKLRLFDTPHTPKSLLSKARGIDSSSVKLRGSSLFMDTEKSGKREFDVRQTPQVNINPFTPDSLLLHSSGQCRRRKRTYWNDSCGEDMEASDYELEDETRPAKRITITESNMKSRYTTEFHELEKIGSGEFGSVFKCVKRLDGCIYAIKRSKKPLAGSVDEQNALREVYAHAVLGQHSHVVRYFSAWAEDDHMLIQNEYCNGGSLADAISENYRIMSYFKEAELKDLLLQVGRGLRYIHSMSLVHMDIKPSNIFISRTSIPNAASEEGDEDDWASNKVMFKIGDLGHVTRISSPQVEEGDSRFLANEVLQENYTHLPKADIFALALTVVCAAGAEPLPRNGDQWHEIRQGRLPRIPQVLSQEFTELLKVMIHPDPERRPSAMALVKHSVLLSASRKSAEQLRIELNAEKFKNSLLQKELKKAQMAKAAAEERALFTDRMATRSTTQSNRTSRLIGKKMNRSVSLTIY
T4 sequence (Q96SW2 whole entry): as the sequence (Q96SW2 whole entry) above
T4 sequence (Q16531 whole entry partner): as the sequence (Q16531 whole entry partner) above

IKZF1 = target: T5, IKZF1 (Homo sapiens, UniProt Q13422+Q96SW2); test: as above; type: cell-based
T5 construct: effects of the compounds of the present disclosure on the expression of target proteins in cells; endogenous in cells; host or cells: human PBMCs (Milecell Biotechnologies)
T5 sequence (Q13422 whole entry): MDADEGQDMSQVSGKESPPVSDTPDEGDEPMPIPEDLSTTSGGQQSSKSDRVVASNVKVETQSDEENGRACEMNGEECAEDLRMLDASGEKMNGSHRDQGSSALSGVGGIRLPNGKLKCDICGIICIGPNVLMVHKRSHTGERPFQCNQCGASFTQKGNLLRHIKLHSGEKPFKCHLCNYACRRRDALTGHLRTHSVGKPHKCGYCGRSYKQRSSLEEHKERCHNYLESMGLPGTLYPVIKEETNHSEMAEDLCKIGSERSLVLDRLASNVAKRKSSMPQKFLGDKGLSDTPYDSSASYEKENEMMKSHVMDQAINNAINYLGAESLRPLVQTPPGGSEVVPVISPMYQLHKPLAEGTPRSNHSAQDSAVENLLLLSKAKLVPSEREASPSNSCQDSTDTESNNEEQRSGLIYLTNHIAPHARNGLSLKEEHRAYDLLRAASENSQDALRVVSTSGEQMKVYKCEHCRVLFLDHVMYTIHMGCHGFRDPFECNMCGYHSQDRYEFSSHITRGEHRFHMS
T5 sequence (Q96SW2 whole entry): as the sequence (Q96SW2 whole entry) above
T5 sequence (Q16531 whole entry partner): as the sequence (Q16531 whole entry partner) above

[1] = target: T6, human Cereblon WT GST-tagged protein (Homo sapiens, UniProt Q96SW2); test: CRBN-binding affinity, HTRF (CEREBLON BINDING kit); settings: for IC50: CRBN binding, HTRF, 3 hours at room temperature, read-out: HTRF IC50; for inhibition at 0.5 µM: read-out: Inhibition Rate at 0.5 µM (%); for inhibition at 2 µM: read-out: Inhibition Rate at 2 µM (%)
T6 construct: purchased CISBIO 64BDCRBNPEH
T6 sequence (Q96SW2 whole entry): as the sequence (Q96SW2 whole entry) above

GSPT1 = test: Western blot, degradation of substrate protein in hPBMCs; type: cell-based, Human
[2] = 24 hours treatment, compounds at 50 nM and 500 nM (concentration behind the class not stated)
[3] = Western blot, 24 hours of compound treatment, compounds tested at 50 nM and 500 nM (concentration for the table not stated)

T1 sequence (P48729 whole entry): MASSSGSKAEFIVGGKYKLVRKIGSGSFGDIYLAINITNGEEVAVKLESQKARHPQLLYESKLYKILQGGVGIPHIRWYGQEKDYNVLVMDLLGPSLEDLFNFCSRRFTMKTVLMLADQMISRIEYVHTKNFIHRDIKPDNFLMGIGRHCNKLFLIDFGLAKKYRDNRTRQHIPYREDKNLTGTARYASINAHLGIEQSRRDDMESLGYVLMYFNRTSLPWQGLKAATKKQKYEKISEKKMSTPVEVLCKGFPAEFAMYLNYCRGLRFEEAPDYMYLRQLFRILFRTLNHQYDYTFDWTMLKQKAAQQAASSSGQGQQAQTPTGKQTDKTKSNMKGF
T1 sequence (Q96SW2 whole entry): as the sequence (Q96SW2 whole entry) above
T1 sequence (Q16531 whole entry partner): as the sequence (Q16531 whole entry partner) above

SMILES	CK1α substrate protein remaining % (CK1α; [2])	IKZF3 substrate protein remaining % (IKZF3; [2])	IKZF2 substrate protein remaining % (IKZF2; [2])	Wee1 substrate protein remaining % (WEE1; [2])	IKZF 1 substrate protein remaining % (IKZF1; [2])	IC50 [1]	GSPT1 substrate protein remaining % (GSPT1; [2])	CK1α substrate protein remaining % (CK1α; [3])	IKZF3 substrate protein remaining % (IKZF3; [3])	IKZF2 substrate protein remaining % (IKZF2; [3])	Wee1 substrate protein remaining % (WEE1; [3])	IKZF 1 substrate protein remaining % (IKZF1; [3])	GSPT1 substrate protein remaining % (GSPT1; [3])	inhibition at 0.5 µM [1]	inhibition at 2 µM [1]
O=C1CCC(N2Cc3ccc(CN4CCN(c5cccc(Cl)c5Cl)CC4)cc3C2=S)C(=O)N1 (stereo not shown) [GT-05033, 3-(6-((4-(2,3-dichlorophenyl)piperazin-1-yl)methyl)-1-thioxoisoindolin-2-yl)piperidine-2,6-dione]	B (80%< substrate protein remaining %≤ 100%)	A (0% ≤ substrate protein remaining % ≤ 80%)	B (80%< substrate protein remaining %≤ 100%)	B (80%< substrate protein remaining %≤ 100%)	B (80%< substrate protein remaining %≤ 100%)	0.1 to 0.5 µM	A (0% ≤ substrate protein remaining % ≤ 80%)								
O=C1CCC(N2Cc3ccc(CN4CCN(c5cccc6sccc56)CC4)cc3C2=S)C(=O)N1 (stereo not shown) [GT-05035, 3-(6-((4-(benzo[b]thiophen-4-yl)piperazin-1-yl)methyl)-1-thioxoisoindolin-2-yl)piperidine-2,6-dione]						0.1 to 0.5 µM		B (80%< substrate protein remaining %≤ 100%)	A (0% ≤ substrate protein remaining % ≤ 80%)	A (0% ≤ substrate protein remaining % ≤ 80%)	A (0% ≤ substrate protein remaining % ≤ 80%)	A (0% ≤ substrate protein remaining % ≤ 80%)	A (0% ≤ substrate protein remaining % ≤ 80%)		
O=C1CCC(N2Cc3c(CN4CCN(c5ccncc5)CC4)cccc3C2=S)C(=O)N1 (stereo not shown) [GT-08726, 3-(4-((4-(pyridin-4-yl)piperazin-1-yl)methyl)-1-thioxoisoindolin-2-yl)piperidine-2,6-dione]								B (80%< substrate protein remaining %≤ 100%)	A (0% ≤ substrate protein remaining % ≤ 80%)	A (0% ≤ substrate protein remaining % ≤ 80%)	A (0% ≤ substrate protein remaining % ≤ 80%)	B (80%< substrate protein remaining %≤ 100%)	A (0% ≤ substrate protein remaining % ≤ 80%)	60 to 80%	80 to 100%
O=C1CCC(N2Cc3c(CN4CCN(c5ncnc6sc(-c7ccccc7)cc56)CC4)cccc3C2=S)C(=O)N1 (stereo not shown) [GT-08919, 3-(4-((4-(6-phenylthieno[2,3-d]pyrimidin-4-yl)piperazin-1-yl)methyl)-1-thioxoisoindolin-2-yl)piperidine-2,6-dione]	B (80%< substrate protein remaining %≤ 100%)	B (80%< substrate protein remaining %≤ 100%)	B (80%< substrate protein remaining %≤ 100%)	A (0% ≤ substrate protein remaining % ≤ 80%)	B (80%< substrate protein remaining %≤ 100%)		B (80%< substrate protein remaining %≤ 100%)							20 to 30%	60 to 80%
Cc1sc2ncnc(N3CCN(Cc4cccc5c4CN(C4CCC(=O)NC4=O)C5=S)CC3)c2c1C (stereo not shown) [GT-08916, 3-(4-((4-(5,6-dimethylthieno[2,3-d]pyrimidin-4-yl)piperazin-1-yl)methyl)-1-thioxoisoindolin-2-yl)piperidine-2,6-dione]	B (80%< substrate protein remaining %≤ 100%)	B (80%< substrate protein remaining %≤ 100%)	B (80%< substrate protein remaining %≤ 100%)	A (0% ≤ substrate protein remaining % ≤ 80%)	B (80%< substrate protein remaining %≤ 100%)		A (0% ≤ substrate protein remaining % ≤ 80%)							40 to 53%	80 to 100%
Cc1nc(C2CCN(Cc3ccc4c(c3)CN(C3CCC(=O)NC3=O)C4=S)CC2)c2ccsc2n1 (stereo not shown) [GT-09309, 3-(5-((4-(2-methylthieno[2,3-d]pyrimidin-4-yl)piperidin-1-yl)methyl)-1-thioxoisoindolin-2-yl)piperidine-2,6-dione]	B (80%< substrate protein remaining %≤ 100%)	B (80%< substrate protein remaining %≤ 100%)	B (80%< substrate protein remaining %≤ 100%)	B (80%< substrate protein remaining %≤ 100%)	B (80%< substrate protein remaining %≤ 100%)		A (0% ≤ substrate protein remaining % ≤ 80%)							60 to 80%	80 to 100%
CC1(C)CCC(CN2C3CCC2CN(Cc2cccc4c2CN(C2CCC(=O)NC2=O)C4=S)C3)=C(c2ccc(Cl)cc2)C1 (stereo not shown) [GT-08291, 3-(4-((8-((4'-chloro-5,5-dimethyl-3,4,5,6-tetrahydro-[1,1-biphenyl]-2-yl)methyl)-3,8-diazabicyclo[3.2.1]octan-3-yl)methyl)-1-thioxoisoindolin-2-yl)piperidine-2,6-dione]								A (0% ≤ substrate protein remaining % ≤ 80%)	B (80%< substrate protein remaining %≤ 100%)	B (80%< substrate protein remaining %≤ 100%)	A (0% ≤ substrate protein remaining % ≤ 80%)	B (80%< substrate protein remaining %≤ 100%)	A (0% ≤ substrate protein remaining % ≤ 80%)	20 to 30%	60 to 80%
O=C1CCC(N2Cc3c(CN4CCN(c5ccncc5F)CC4)cccc3C2=S)C(=O)N1 (stereo not shown) [GT-08730, 3-(4-((4-(3-fluoropyridin-4-yl)piperazin-1-yl)methyl)-1-thioxoisoindolin-2-yl)piperidine-2,6-dione]								B (80%< substrate protein remaining %≤ 100%)	B (80%< substrate protein remaining %≤ 100%)	B (80%< substrate protein remaining %≤ 100%)	A (0% ≤ substrate protein remaining % ≤ 80%)	B (80%< substrate protein remaining %≤ 100%)	B (80%< substrate protein remaining %≤ 100%)	60 to 80%	80 to 100%
Cc1ccc(C2CCN(Cc3cccc4c3CN(C3CCC(=O)NC3=O)C4=S)CC2)s1 (stereo not shown) [GT-08312, 3-(4-((4-(5-methylthiophen-2-yl)piperidin-1-yl)methyl)-1-thioxoisoindolin-2-yl)piperidine-2,6-dione]	B (80%< substrate protein remaining %≤ 100%)	B (80%< substrate protein remaining %≤ 100%)	B (80%< substrate protein remaining %≤ 100%)	A (0% ≤ substrate protein remaining % ≤ 80%)	B (80%< substrate protein remaining %≤ 100%)		B (80%< substrate protein remaining %≤ 100%)							53 to 60%	80 to 100%
Cc1cc(N2CCN(Cc3cccc4c3CN(C3CCC(=O)NC3=O)C4=S)CC2)cs1 (stereo not shown) [GT-08298, 3-(4-((4-(5-methylthiophen-3-yl)piperazin-1-yl)methyl)-1-thioxoisoindolin-2-yl)piperidine-2,6-dione]								B (80%< substrate protein remaining %≤ 100%)	B (80%< substrate protein remaining %≤ 100%)	B (80%< substrate protein remaining %≤ 100%)	A (0% ≤ substrate protein remaining % ≤ 80%)	B (80%< substrate protein remaining %≤ 100%)	B (80%< substrate protein remaining %≤ 100%)	60 to 80%	80 to 100%
O=C1CCC(N2Cc3c(CN4CCN(c5ncnc(Cl)c5Cl)CC4)cccc3C2=S)C(=O)N1 (stereo not shown) [GT-08814, 3-(4-((4-(5,6-dichloropyrimidin-4-yl)piperazin-1-yl)methyl)-1-thioxoisoindolin-2-yl)piperidine-2,6-dione]								B (80%< substrate protein remaining %≤ 100%)	B (80%< substrate protein remaining %≤ 100%)	A (0% ≤ substrate protein remaining % ≤ 80%)	B (80%< substrate protein remaining %≤ 100%)	B (80%< substrate protein remaining %≤ 100%)	B (80%< substrate protein remaining %≤ 100%)	60 to 80%	80 to 100%
Cc1nc(N2CCN(Cc3ccc4c(c3)CN(C3CCC(=O)NC3=O)C4=S)CC2)c2c3c(sc2n1)CCCC3 (stereo not shown) [GT-09299, 3-(5-((4-(2-methyl-5,6,7,8-tetrahydrobenzo[4,5]thieno[2,3-d]pyrimidin-4-yl)piperazin-1-yl)methyl)-1-thioxoisoindolin-2-yl)piperidine-2,6-dione]	B (80%< substrate protein remaining %≤ 100%)	A (0% ≤ substrate protein remaining % ≤ 80%)	A (0% ≤ substrate protein remaining % ≤ 80%)	B (80%< substrate protein remaining %≤ 100%)	B (80%< substrate protein remaining %≤ 100%)		B (80%< substrate protein remaining %≤ 100%)							53 to 60%	80 to 100%

Reference: patent EP4745135A1 (Gluetacs Therapeutics (Shanghai) Co., Ltd., priority 2023, dated 2025)
